Data published in article PMC5001616 (Nucleic Acids Research, 2016).
“And” between values parts separate entries of the source, which are not always exact repeats. Equal values may be shown once. Read-outs that look alike come from different tables or passages of the source.

Columns and labels:
[1] = target: T1, WT HIV-1 IN (Human immunodeficiency virus type 1 group M subtype B, UniProt P12497); test: 3'-processing (3'-P) inhibition, recombinant WT IN, gel-based; format: biochemical
T1 construct: we tested the 3′-P activity of WT and SH mutant integrases; made in house
Procedure: (§1) Oligonucleotides harboring a tetrahydrofuran group in place of the nucleobase at position −1 (21Ab-1, […]_GT), at position +1 (21Ab+1, […]_T), position +2 (21Ab+2, […]_) and in place of the last 2 bases (21-2Ab, […]__) were purchased from Eurogentec with PAGE purification. 5’-Labeling was performed using T4 polynucleotide kinase (New England Biolabs, Ipswich, MA, USA) with [γ-^32P]-ATP (Perkin-Elmer Life and Analytical Sciences, Boston, MA, USA) according to the manufacturers’ instructions. Unincorporated isotopes were removed using the Mini Quick spin oligo columns (Roche). Duplex substrates were obtained by annealing ‘top’ (21t or 19t) and ‘bottom’ (21b) oligonucleotides at equimolar ratio.
(§2) WT and mutant INs were purified and their enzymatic activities measured as previously reported ([11]). […] 3′-P and ST reactions were performed at 37°C for 120 min unless otherwise indicated.
(§3) Linear regressions, fit curves, IC50 determinations, standard deviations, standard error of the mean and statistical analyses (P-values) were generated using GraphPad Prism software 5.0c. Pearson and Spearman correlations were determined using the following equation: […]

[2] = target: G140S-Q148H (SH) mutant HIV-1 IN (Human immunodeficiency virus type 1 group M subtype B, UniProt P12497, G1287S/Q1295H); details: abasic substrates vs normal substrate
Procedure: as §1, §2, §3

[3] = target: T1, WT HIV-1 IN; details: read-out: IC50, inhibition of ST; cited from earlier work
[4] = tested on: WT HIV-1 intasome; details: cited from earlier work

SMILES: C[C@@H]1CCO[C@H]2Cn3cc(C(=O)NCc4ccc(F)cc4F)c(=O)c(O)c3C(=O)N12 [DTG, dolutegravir]
- Selectivity index (SI) for 3'-P/ST ([1]; IC50 for 3'-P divided by IC50 for ST): 50
- IC50 ([1]; read-out: IC50, inhibition of 3'-P, canonical CAGT substrate, 120 min): 1.64 µM and 1.6 µM
- Increase of IC50 for 3'-P on removing either the -1 or +1 base [2]: about 100 fold
- IC50 [3]: 0.033 µM
- Time bound to the WT HIV-1 intasome relative to EVG ([4]; longer than EVG): 26 fold
- Time bound to the WT HIV-1 intasome relative to RAL ([4]; longer than RAL): 8 fold
